Measured values published in ChEMBL document CHEMBL5143697, “Phenethoxy Derivatives with Anti-inflammatory Activities from the Betelnut Endophytic Trichoderma asperellum G10” (J Nat Prod, 2022).

Tested on: RAW264.7
Test: Antiinflammatory activity against mouse RAW264.7 cells assessed as inhibition of LPS-induced NO production preincubated for 1 hr followed by LPS stimulation and measured after 36 hrs by Griess reagent based assay
Assay type: functional, cell-based

- IC50: 48.3 µM
Compound: C[C@@H]1[C@H](OCCc2ccccc2)O[C@H](C)[C@H]1CO
